The test addresses human NaV1.8 (Homo sapiens (Human), UniProt Q9Y5Y9). Nature of the test: Nav1.8 Qube automated patch-clamp assay. The format is cell-based. To be noted: human NaV1.8 stably expressed in HEK 293 cells; automated 384-well patch-clamp; resting or inactivated state not specified. The protocol: Compounds were tested on human NaV1.8 and NaV1.5 channels stably expressed in human embryo kidney (HEK) 293 cells. Sodium current measurements on Qube® were conducted as follows: automated 384-well patch-clamp assays on the Qube® platform (Sophion Biosciences) were used to measure the inhibition of sodium flow through human NaV1.8 and NaV1.5 channels. Whole-cell voltage-clamp recordings were performed in QChips® (Sophion Biosciences) at room temperature. NaV1.8 current measurements on Qube® were obtained as follows: NaV1.8 currents were elicited with a 10 second 1 Hertz (Hz) pulse train from a holding potential of −90 millivolts (mV), delivered to the cells once per minute in the control condition (DMSO only) and after compound addition. The 1 hertz pulse train stimulation consisted of ten test pulses to 10 millivolt (mV) for 20 milliseconds (ms), each of which was followed by a 980 millisecond repolarization to −67 millivolts. At the end of the 10 second pulse train stimulation, a 5 second hyperpolarization step to −100 millivolt (mV) was used to recover NaV1.8 from fast inactivation. The peak currents elicited by the 1st and 10th test pulses were used to determine IC50 values for resting inhibition and inactivated state inhibition. NaV1.5 current measurements on Qube® were obtained as follows: NaV1.5 currents were elicited with a 20 second 3 Hertz pulse train in the control condition (DMSO only) and after compound addition. The pulse train consisted of sixty 20 millisecond test pulses to 0 millivolt from a holding potential of −80 millivolt (mV). The average peak currents elicited by the last 3 test pulses were used to determine IC50 values for NaV1.5 inhibition.
The following buffers were used for the Qube® recordings: External buffer for NaV1.8 Qube® recording: 150 NaCl, 2 CaCl2, 5 KCl, 1 Mg Cl2, 10 HEPES, 12 Dextrose; External buffer for Qube® NaV1.5 recording: 120 N-Methyl-D-Glucamine, 40 NaCl, 1 KCl, 2.7 CaCl2, 5 HEPES, 0.5 MgCl2; and Internal buffer for Qube® recording: 120 CsF, 30 CsCl, 10 EGTA, 5 HEPES, 5 NaF, 2 MgCl2.
For all Qube® experiments offline analysis was used to determine percent inhibition as a function of drug concentration. IC50 values were determined by fitting to the Hill equation.

By IC50 is commonly meant the point on the concentration scale where inhibition reaches its midpoint. Low values mean greater potency, high ones weaker potency.

Chain of human NaV1.8 (Q9Y5Y9 whole entry): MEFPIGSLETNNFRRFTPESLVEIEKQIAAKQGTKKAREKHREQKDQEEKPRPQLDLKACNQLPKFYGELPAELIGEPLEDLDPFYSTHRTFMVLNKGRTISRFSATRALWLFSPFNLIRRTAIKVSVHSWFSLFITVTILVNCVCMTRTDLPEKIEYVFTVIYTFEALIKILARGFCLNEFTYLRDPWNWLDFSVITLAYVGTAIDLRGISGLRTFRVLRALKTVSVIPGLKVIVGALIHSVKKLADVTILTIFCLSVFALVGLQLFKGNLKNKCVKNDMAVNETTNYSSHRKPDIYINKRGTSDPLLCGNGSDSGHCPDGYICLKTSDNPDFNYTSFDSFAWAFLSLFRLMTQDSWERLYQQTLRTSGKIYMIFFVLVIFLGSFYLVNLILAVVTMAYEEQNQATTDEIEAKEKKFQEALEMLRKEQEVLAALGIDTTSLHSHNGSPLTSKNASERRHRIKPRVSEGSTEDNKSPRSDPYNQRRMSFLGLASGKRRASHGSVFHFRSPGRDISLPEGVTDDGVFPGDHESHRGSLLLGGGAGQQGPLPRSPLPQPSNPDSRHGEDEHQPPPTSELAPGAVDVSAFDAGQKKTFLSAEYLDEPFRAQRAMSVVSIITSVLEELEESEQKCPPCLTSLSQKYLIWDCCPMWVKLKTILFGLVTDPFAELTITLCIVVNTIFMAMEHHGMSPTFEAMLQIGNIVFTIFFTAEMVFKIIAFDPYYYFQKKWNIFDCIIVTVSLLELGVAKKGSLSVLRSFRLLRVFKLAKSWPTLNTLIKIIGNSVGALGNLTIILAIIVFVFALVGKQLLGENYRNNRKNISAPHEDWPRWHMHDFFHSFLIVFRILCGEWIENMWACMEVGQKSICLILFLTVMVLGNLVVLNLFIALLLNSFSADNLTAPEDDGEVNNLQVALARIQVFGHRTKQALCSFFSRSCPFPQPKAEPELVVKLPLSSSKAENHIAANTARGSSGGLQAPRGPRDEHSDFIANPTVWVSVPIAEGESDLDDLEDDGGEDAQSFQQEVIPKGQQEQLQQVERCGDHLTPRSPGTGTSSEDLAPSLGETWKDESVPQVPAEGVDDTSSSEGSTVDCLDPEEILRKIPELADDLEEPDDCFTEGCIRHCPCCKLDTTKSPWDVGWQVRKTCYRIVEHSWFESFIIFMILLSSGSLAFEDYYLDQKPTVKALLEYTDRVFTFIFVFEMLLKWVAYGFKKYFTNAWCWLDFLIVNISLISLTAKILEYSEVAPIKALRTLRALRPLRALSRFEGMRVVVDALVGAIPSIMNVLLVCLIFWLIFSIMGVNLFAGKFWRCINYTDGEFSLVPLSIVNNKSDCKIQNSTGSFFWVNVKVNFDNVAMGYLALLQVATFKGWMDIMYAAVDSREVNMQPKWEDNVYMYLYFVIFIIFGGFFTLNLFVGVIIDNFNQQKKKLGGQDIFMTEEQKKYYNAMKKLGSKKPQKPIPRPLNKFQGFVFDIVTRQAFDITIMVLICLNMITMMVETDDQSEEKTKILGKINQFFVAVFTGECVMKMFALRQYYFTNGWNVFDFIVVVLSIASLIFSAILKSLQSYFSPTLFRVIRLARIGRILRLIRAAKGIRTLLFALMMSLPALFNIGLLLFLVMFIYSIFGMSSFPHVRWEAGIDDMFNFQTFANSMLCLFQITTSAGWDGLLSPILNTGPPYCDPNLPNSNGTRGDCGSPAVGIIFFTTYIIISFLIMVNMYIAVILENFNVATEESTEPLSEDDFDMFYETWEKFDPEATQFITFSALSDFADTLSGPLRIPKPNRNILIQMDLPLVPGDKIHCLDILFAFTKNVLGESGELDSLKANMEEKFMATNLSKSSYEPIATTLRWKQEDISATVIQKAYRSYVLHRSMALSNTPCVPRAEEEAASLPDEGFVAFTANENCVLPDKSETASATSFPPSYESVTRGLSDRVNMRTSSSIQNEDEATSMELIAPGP

With `O=C1NC[C@@H](C(=O)NC(c2ccc(C(F)(F)F)nc2)c2csc(C(F)(F)F)n2)N1` (mixture of isomers) [Example 19, (S)-2-oxo-N—((R and S)-(6-(trifluoromethyl)pyridin-3-yl)(2-(trifluoromethyl)thiazol-4-yl)methyl)imidazolidine-4-carboxamide], 116 nM corresponded to half-maximal inhibition (IC50). With `O=C1NC[C@@H](C(=O)NC(COc2ccc(C(F)(F)F)nc2)c2ccc(F)c(Cl)c2)N1` (mixture of isomers) [Example 53, (4S)-N-(1-(3-chloro-4-fluorophenyl)-2-((6-(trifluoromethyl)pyridin-3-yl)oxy)ethyl)-2-oxoimidazolidine-4-carboxamide] the figure was 219 nM. `O=C1NC[C@@H](C(=O)NC(c2ccc(Cl)cc2)c2ccc3ncsc3c2)N1` (mixture of isomers) [Example 81, (4S)-N-(benzo[d]thiazol-6-yl(4-chlorophenyl)methyl)-2-oxoimidazolidine-4-carboxamide] registered a 50% inhibitory concentration (IC50) of 54 nM. With `O=C1NC[C@@H](C(=O)NC(COc2ccc(F)c(Cl)c2)c2ccc(F)c(Cl)c2)N1` (single isomer, unassigned) [Example 1A, (S)—N—((R or S)-2-(3-chloro-4-fluorophenoxy)-1-(3-chloro-4-fluorophenyl)ethyl)-2-oxoimidazolidine-4-carboxamide] the figure was 4 nM; with `O=C1NC[C@@H](C(=O)NC(COc2ccc(F)c(Cl)c2)c2ccc(F)c(Cl)c2)N1` (single isomer, unassigned) [Example 1B, (S)—N—((R or S)-2-(3-chloro-4-fluorophenoxy)-1-(3-chloro-4-fluorophenyl)ethyl)-2-oxoimidazolidine-4-carboxamide], 22 nM. The compound `CN1C(=O)NCC1C(=O)NC(c1ccc(Cl)cc1)c1ccc(Cl)cc1` (single isomer, unassigned) [Example 2A, (R or S)—N-(bis(4-chlorophenyl)methyl)-3-methyl-2-oxoimidazolidine-4-carboxamide] had an IC50 of 34 nM. In the case of `CN1C(=O)NCC1C(=O)NC(c1ccc(Cl)cc1)c1ccc(Cl)cc1` (single isomer, unassigned) [Example 2B, (R or S)—N-(bis(4-chlorophenyl)methyl)-3-methyl-2-oxoimidazolidine-4-carboxamide], the concentration for half-maximal inhibition (IC50) worked out at 8100 nM.

With `O=C1NC[C@@H](C(=O)NC(c2cnc(C(F)(F)F)c(Cl)c2)c2ccc(Cl)c(C(F)F)n2)N1` (single isomer, unassigned) [Example 3A, (S)—N—((R or S)-(5-chloro-6-(difluoromethyl)pyridin-2-yl)(5-chloro-6-(trifluoromethyl)pyridin-3-yl)methyl)-2-oxoimidazolidine-4-carboxamide], half-maximal inhibition (IC50) required 9.7 nM.

Regarding `O=C1NC[C@@H](C(=O)NC(c2cnc(C(F)(F)F)c(Cl)c2)c2ccc(Cl)c(C(F)F)n2)N1` (single isomer, unassigned) [Example 3B, (S)—N—((R or S)-(5-chloro-6-(difluoromethyl)pyridin-2-yl)(5-chloro-6-(trifluoromethyl)pyridin-3-yl)methyl)-2-oxoimidazolidine-4-carboxamide], half-maximal inhibition (IC50) was put at 2.7 nM. Next, `O=C1NC[C@@H](C(=O)NC(c2ccc(F)c(Cl)c2)c2cc(C(F)(F)F)[nH]n2)N1` (single isomer, unassigned) [Example 4A, (S)—N—((R or S)-(3-chloro-4-fluorophenyl)(5-(trifluoromethyl)-1H-pyrazol-3-yl)methyl)-2-oxoimidazolidine-4-carboxamide]: 203 nM; `O=C1NC[C@@H](C(=O)NC(c2ccc(F)c(Cl)c2)c2cc(C(F)(F)F)[nH]n2)N1` (single isomer, unassigned) [Example 4B, (S)—N—((R or S)-(3-chloro-4-fluorophenyl)(5-(trifluoromethyl)-1H-pyrazol-3-yl)methyl)-2-oxoimidazolidine-4-carboxamide]: 6.2 nM. With `O=C1NC[C@@H](C(=O)NC(c2ccc(F)c(Cl)c2F)C2CCN(C3(C(F)(F)F)CC3)CC2)N1` (single isomer, unassigned) [Example 5A, (S)—N—((R or S)-(3-chloro-2,4-difluorophenyl)(1-(1-(trifluoromethyl)-cyclopropyl)piperidin-4-yl)methyl)-2-oxoimidazolidine-4-carboxamide] the figure was 1.6 nM; with `O=C1NC[C@@H](C(=O)NC(c2ccc(F)c(Cl)c2F)C2CCN(C3(C(F)(F)F)CC3)CC2)N1` (single isomer, unassigned) [Example 5B, (S)—N—((R or S)-(3-chloro-2,4-difluorophenyl)(1-(1-(trifluoromethyl)-cyclopropyl)piperidin-4-yl)methyl)-2-oxoimidazolidine-4-carboxamide], 74 nM. Next, `O=C1NC[C@@H](C(=O)NC(c2ccc(OC(F)(F)F)cc2)c2ccc(F)c(C(F)(F)F)n2)N1` (single isomer, unassigned) [Example 7A, (S)—N—((R or S)-(5-fluoro-6-(trifluoromethyl)pyridin-2-yl)(4-(trifluoromethoxy)phenyl)-methyl)-2-oxoimidazolidine-4-carboxamide]: 1.1 nM; `O=C1NC[C@@H](C(=O)NC(c2ccc(OC(F)(F)F)cc2)c2ccc(F)c(C(F)(F)F)n2)N1` (single isomer, unassigned) [Example 7B, (S)—N—((R or S)-(5-fluoro-6-(trifluoromethyl)pyridin-2-yl)(4-(trifluoromethoxy)phenyl)methyl)-2-oxo-imidazolidine-4-carboxamide]: 44 nM. Turning to `O=C1NC[C@@H](C(=O)NC(c2ccc(F)c(Cl)c2F)[C@@H]2CC[C@@H](C(F)(F)F)CO2)N1` (single isomer, unassigned) [Example 8A, (S)—N—((R or S)-(3-chloro-2,4-difluorophenyl)((trans)-5-(trifluoromethyl)tetrahydro-2H-pyran-2-yl)methyl)-2-oxoimidazolidine-4-carboxamide], half-maximal inhibition (IC50) was put at 1140 nM. On to `O=C1NC[C@@H](C(=O)NC(c2ccc(F)c(Cl)c2F)[C@@H]2CC[C@@H](C(F)(F)F)CO2)N1` (single isomer, unassigned) [Example 8B, (S)—N—((R or S)-(3-chloro-2,4-difluorophenyl)((trans)-5-(trifluoromethyl)tetrahydro-2H-pyran-2-yl)methyl)-2-oxoimidazolidine-4-carboxamide], for which inhibition was half-maximal at 8.4 nM (IC50).

With `O=C1NC[C@@H](C(=O)NC(c2ccc(F)c(Cl)c2F)[C@@H]2CC[C@@H](C(F)(F)F)CO2)N1` (single isomer, unassigned) [Example 8C, (S)—N—((R or S)-(3-chloro-2,4-difluorophenyl)((trans)-5-(trifluoromethyl)tetrahydro-2H-pyran-2-yl)methyl)-2-oxoimidazolidine-4-carboxamide], the 50% inhibitory concentration (IC50) came out at 23 nM. Next, `O=C1NC[C@@H](C(=O)NC(c2ccc(OC(F)(F)F)cc2)c2cccc(Cl)c2)N1` (single isomer, unassigned) [Example 9A, (4S)—N—((R or S)-(3-chlorophenyl)(4-(trifluoromethoxy)phenyl)methyl)-2-oxoimidazolidine-4-carboxamide]: 2 nM.

Take `O=C1NC[C@@H](C(=O)NC(c2ccc(OC(F)(F)F)cc2)c2cccc(Cl)c2)N1` (single isomer, unassigned) [Example 9B, (4S)—N—((R or S)-(3-chlorophenyl)(4-(trifluoromethoxy)-phenyl)methyl)-2-oxoimidazolidine-4-carboxamide]: the midpoint of inhibition, the IC50, lay at 2 nM.

The values are drawn from patent US20230312528A1, “2-OXO-IMIDAZOLIDINE-4-CARBOXAMIDES AS NAV1.8 INHIBITORS” (Merck Sharp & Dohme LLC, priority 2020, published 2023).
